The nature of series [1]: Solubility in 0.1 M phosphate buffer at pH 7. In kind it is physicochemical. Conditions: 0.1 M phosphate buffer at pH 7, 10 mg/mL final peptide concentration, shaking 2 hours at room temperature, peptides as TFA-salts; measured sample pH 6.5-7.0.
For series [2], the target named is T1, hGIPR (Homo sapiens, UniProt P48546).
T1 construct: expressed in transfected cells; host or cells: CHO CRE-luciferase reporter cells
T1 sequence (P48546 22-466): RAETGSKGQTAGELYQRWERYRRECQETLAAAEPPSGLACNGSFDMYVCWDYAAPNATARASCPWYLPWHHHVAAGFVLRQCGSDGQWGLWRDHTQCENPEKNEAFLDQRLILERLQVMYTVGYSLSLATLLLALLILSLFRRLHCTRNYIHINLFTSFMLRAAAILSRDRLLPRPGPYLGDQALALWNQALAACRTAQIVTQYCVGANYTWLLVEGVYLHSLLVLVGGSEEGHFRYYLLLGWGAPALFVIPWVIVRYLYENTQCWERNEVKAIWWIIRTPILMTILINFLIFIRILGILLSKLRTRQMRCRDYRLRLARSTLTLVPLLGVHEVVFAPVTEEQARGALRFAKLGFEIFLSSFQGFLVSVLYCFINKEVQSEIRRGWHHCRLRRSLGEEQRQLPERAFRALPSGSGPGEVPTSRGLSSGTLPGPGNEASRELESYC
Kind of series: hGIPR CreLuc assay in 0.5% and 100% plasma (CHO CRE-luciferase reporter cells). In kind it is cell-based.

Where [3] appears, read: 0.5% human plasma, read-out: hGIPR 0.5% hP.

Where two headings read alike, the source gives them in different places.

Regarding `CC[C@H](C)[C@H](NC(=O)[C@H](CC(C)C)NC(=O)[C@H](Cc1c[nH]cn1)NC(=O)[C@H](CCCNC(=N)N)NC(=O)[C@@H](NC(=O)[C@H](Cc1ccccc1)NC(=O)[C@H](C)NC(=O)C(C)(C)NC(=O)[C@H](CCC(N)=O)NC(=O)[C@H](C)NC(=O)[C@H](CCC(N)=O)NC(=O)[C@H](CCCCN)NC(=O)[C@H](CCC(=O)O)NC(=O)[C@H](CC(C)C)NC(=O)C(C)(C)NC(=O)[C@@H](NC(=O)[C@H](CO)NC(=O)[C@H](CC(C)C)NC(=O)[C@H](CC(=O)O)NC(=O)[C@H](CO)NC(=O)[C@@H](NC(=O)[C@H](Cc1ccccc1)NC(=O)[C@@H](NC(=O)CNC(=O)[C@H](CCC(=O)O)NC(=O)C(C)(C)NC(=O)[C@@H](N)Cc1ccc(O)cc1)[C@@H](C)O)[C@@H](C)O)[C@@H](C)CC)C(C)C)C(=O)N[C@@H](CC(N)=O)C(=O)N[C@@H](CCCCNC(=O)CC[C@H](NC(=O)[C@@H](N)CCCCNC(=O)CC[C@H](NC(=O)CC[C@H](NC(=O)CC[C@H](NC(=O)CC[C@H](NC(=O)CC[C@H](NC(=O)CCCCCCCCCCCCCCCCCCC(=O)O)C(=O)O)C(=O)O)C(=O)O)C(=O)O)C(=O)O)C(=O)O)C(=O)NC(C)(C)C(=O)N[C@H](C(=O)N[C@@H](CCCNC(=N)N)C(=O)N[C@@H](CCC(N)=O)C(=O)N[C@@H](CCCNC(=N)N)C(=O)N[C@@H](Cc1ccc(O)cc1)C(N)=O)[C@@H](C)O` [Compound 60, Y-Aib-E-G-T-F-T-S-D-L-S-I-Aib-L-E-K-Q-A-Q-Aib-A-F-V-R-H-L-I-N-K(1,3)-Aib-T-R-Q-R-Y-NH2.C20DA-gGlu-gGlu-gGlu-gGlu-gGlu-eLys-gGlu(1,2)], in series [1], the solubility at 2 h stood at 9.6 mg/mL. In addition, the EC50 in series [2] (hGIPR 0.5% hP (nM), 0.5% human plasma) was found to be 0.3 nM; in series [2] (hGIPR 100% hP (nM), 100% human plasma), 8 nM.
Turning to `CC[C@H](C)[C@H](NC(=O)[C@H](CC(C)C)NC(=O)[C@H](Cc1c[nH]cn1)NC(=O)[C@H](CCCNC(=N)N)NC(=O)[C@@H](NC(=O)[C@H](Cc1ccccc1)NC(=O)[C@H](C)NC(=O)[C@H](C)NC(=O)[C@H](CCC(N)=O)NC(=O)[C@H](C)NC(=O)[C@H](CCC(N)=O)NC(=O)[C@H](CCCCN)NC(=O)[C@H](CCC(=O)O)NC(=O)[C@H](CC(C)C)NC(=O)C(C)(C)NC(=O)[C@@H](NC(=O)[C@H](CO)NC(=O)[C@H](Cc1ccc(O)cc1)NC(=O)[C@H](CC(=O)O)NC(=O)[C@H](CO)NC(=O)[C@@H](NC(=O)[C@H](Cc1ccccc1)NC(=O)[C@@H](NC(=O)CNC(=O)[C@H](CCC(=O)O)NC(=O)C(C)(C)NC(=O)[C@@H](N)Cc1ccc(O)cc1)[C@@H](C)O)[C@@H](C)O)[C@@H](C)CC)C(C)C)C(=O)N[C@@H](CC(N)=O)C(=O)N[C@@H](CCCCNC(=O)[C@@H](N)CCCCNC(=O)CC[C@H](NC(=O)CC[C@H](NC(=O)CC[C@H](NC(=O)CC[C@H](NC(=O)CC[C@H](NC(=O)CC[C@H](NC(=O)CCCCCCCCCCCCCCCCC(=O)O)C(=O)O)C(=O)O)C(=O)O)C(=O)O)C(=O)O)C(=O)O)C(=O)NC(C)(C)C(=O)N[C@H](C(=O)N[C@@H](CCCNC(=N)N)C(=O)N[C@@H](CCC(N)=O)C(=O)N[C@@H](CCCNC(=N)N)C(=O)N[C@@H](Cc1ccc(O)cc1)C(N)=O)[C@@H](C)O` [Compound 61, Y-Aib-E-G-T-F-T-S-D-Y-S-I-Aib-L-E-K-Q-A-Q-A-A-F-V-R-H-L-I-N-K(1,3)-Aib-T-R-Q-R-Y-NH2.C18DA-gGlu-gGlu-gGlu-gGlu-gGlu-gGlu-eLys(1,2)], the solubility at 2 h in series [1] came out at 3.7 mg/mL. The EC50 in series [2] (setting [3]) was 0.4 nM.
Consider `CC[C@H](C)[C@H](NC(=O)[C@H](CC(C)C)NC(=O)[C@H](Cc1c[nH]cn1)NC(=O)[C@H](CCCNC(=N)N)NC(=O)[C@@H](NC(=O)[C@H](Cc1ccccc1)NC(=O)[C@H](C)NC(=O)C(C)(C)NC(=O)[C@H](CCC(N)=O)NC(=O)[C@H](C)NC(=O)[C@H](CCC(N)=O)NC(=O)[C@H](CC(C)C)NC(=O)[C@H](CCC(=O)O)NC(=O)[C@H](CC(C)C)NC(=O)C(C)(C)NC(=O)[C@@H](NC(=O)[C@H](CO)NC(=O)[C@H](Cc1ccc(O)cc1)NC(=O)[C@H](CC(=O)O)NC(=O)[C@H](CO)NC(=O)[C@@H](NC(=O)[C@H](Cc1ccccc1)NC(=O)[C@@H](NC(=O)CNC(=O)[C@H](CCC(=O)O)NC(=O)C(C)(C)NC(=O)[C@@H](N)Cc1ccc(O)cc1)[C@@H](C)O)[C@@H](C)O)[C@@H](C)CC)C(C)C)C(=O)N[C@@H](CC(N)=O)C(=O)N[C@@H](CCCCNC(=O)[C@@H](N)CCCCNC(=O)CC[C@H](NC(=O)CC[C@H](NC(=O)CC[C@H](NC(=O)CC[C@H](NC(=O)CC[C@H](NC(=O)CC[C@H](NC(=O)CCCCCCCCCCCCCCCCC(=O)O)C(=O)O)C(=O)O)C(=O)O)C(=O)O)C(=O)O)C(=O)O)C(=O)NC(C)(C)C(=O)N[C@H](C(=O)N[C@@H](CCCNC(=N)N)C(=O)N[C@@H](CCC(N)=O)C(=O)N[C@@H](CCCNC(=N)N)C(=O)N[C@@H](Cc1ccc(O)cc1)C(N)=O)[C@@H](C)O` [Compound 65, Y-Aib-E-G-T-F-T-S-D-Y-S-I-Aib-L-E-L-Q-A-Q-Aib-A-F-V-R-H-L-I-N-K(1,3)-Aib-T-R-Q-R-Y-NH2.C18DA-gGlu-gGlu-gGlu-gGlu-gGlu-gGlu-eLys(1,2)], for which, in series [1], the solubility at 2 h came to 3.9 mg/mL. For the same molecule, the EC50 in series [2] (setting [3]) is 0.7 nM.
Turning to `CC[C@H](C)[C@H](NC(=O)[C@H](CC(C)C)NC(=O)[C@H](Cc1c[nH]cn1)NC(=O)[C@H](CCCNC(=N)N)NC(=O)[C@@H](NC(=O)[C@H](Cc1ccccc1)NC(=O)[C@H](C)NC(=O)C(C)(C)NC(=O)[C@H](CCC(N)=O)NC(=O)[C@H](C)NC(=O)[C@H](CCC(N)=O)NC(=O)[C@H](CCCCN)NC(=O)[C@H](CCC(=O)O)NC(=O)[C@H](CC(C)C)NC(=O)C(C)(C)NC(=O)[C@@H](NC(=O)[C@H](CO)NC(=O)[C@H](Cc1ccc(O)cc1)NC(=O)[C@H](CC(=O)O)NC(=O)[C@H](CO)NC(=O)[C@@H](NC(=O)[C@H](Cc1ccccc1)NC(=O)[C@@H](NC(=O)CNC(=O)[C@H](CCC(=O)O)NC(=O)C(C)(C)NC(=O)[C@@H](N)Cc1ccc(O)cc1)[C@@H](C)O)[C@@H](C)O)[C@@H](C)CC)C(C)C)C(=O)N[C@@H](CC(N)=O)C(=O)N[C@@H](CCCCNC(=O)[C@@H](N)CCCCNC(=O)CC[C@H](NC(=O)CC[C@H](NC(=O)CC[C@H](NC(=O)CC[C@H](NC(=O)CC[C@H](NC(=O)CC[C@H](NC(=O)CCCCCCCCCCCCCCCCC(=O)O)C(=O)O)C(=O)O)C(=O)O)C(=O)O)C(=O)O)C(=O)O)C(=O)N[C@H](C(=O)N[C@H](C(=O)N[C@@H](CCCNC(=N)N)C(=O)N[C@@H](CCC(N)=O)C(=O)N[C@@H](CCCNC(=N)N)C(=O)N[C@@H](Cc1ccc(O)cc1)C(N)=O)[C@@H](C)O)[C@@H](C)CC` [Compound 66, Y-Aib-E-G-T-F-T-S-D-Y-S-I-Aib-L-E-K-Q-A-Q-Aib-A-F-V-R-H-L-I-N-K(1,3)-I-T-R-Q-R-Y-NH2.C18DA-gGlu-gGlu-gGlu-gGlu-gGlu-gGlu-eLys(1,2)], the solubility at 2 h in series [1] is 5 mg/mL. The EC50 in series [2] (setting [3]) turned out to be 0.2 nM.
For `CC[C@H](C)[C@H](NC(=O)[C@H](CC(C)C)NC(=O)[C@H](Cc1c[nH]cn1)NC(=O)[C@H](CCCNC(=N)N)NC(=O)[C@@H](NC(=O)[C@H](Cc1ccccc1)NC(=O)[C@H](C)NC(=O)C(C)(C)NC(=O)[C@H](CCC(N)=O)NC(=O)[C@H](C)NC(=O)[C@H](CCC(N)=O)NC(=O)[C@H](CCC(=O)O)NC(=O)[C@H](CCC(=O)O)NC(=O)[C@H](CC(C)C)NC(=O)C(C)(C)NC(=O)[C@@H](NC(=O)[C@H](CO)NC(=O)[C@H](Cc1ccc(O)cc1)NC(=O)[C@H](CC(=O)O)NC(=O)[C@H](CO)NC(=O)[C@@H](NC(=O)[C@H](Cc1ccccc1)NC(=O)[C@@H](NC(=O)CNC(=O)[C@H](CCC(=O)O)NC(=O)C(C)(C)NC(=O)[C@@H](N)Cc1ccc(O)cc1)[C@@H](C)O)[C@@H](C)O)[C@@H](C)CC)C(C)C)C(=O)N[C@@H](CC(N)=O)C(=O)N[C@@H](CCCCNC(=O)CC[C@H](NC(=O)CC[C@H](NC(=O)CC[C@H](NC(=O)CC[C@H](NC(=O)CC[C@H](NC(=O)CCCCCCCCCCCCCCCCC(=O)O)C(=O)O)C(=O)O)C(=O)O)C(=O)O)C(=O)O)C(=O)NC(C)(C)C(=O)N[C@H](C(=O)N[C@@H](CCCNC(=N)N)C(=O)N[C@@H](CCC(N)=O)C(=O)N[C@@H](CCCNC(=N)N)C(=O)N[C@@H](Cc1ccc(O)cc1)C(N)=O)[C@@H](C)O` [Compound 75, Y-Aib-E-G-T-F-T-S-D-Y-S-I-Aib-L-E-E-Q-A-Q-Aib-A-F-V-R-H-L-I-N-K(1,3)-Aib-T-R-Q-R-Y-NH2.C18DA-gGlu-gGlu-gGlu-gGlu-gGlu(1,2)], in series [1], the solubility at 2 h is 4.3 mg/mL. Further, the EC50 in series [2] (setting [3]) worked out at 0.3 nM.

The values above are taken from patent publication US20250382344A1, “Soluble GLP1/GIP/NPY2 Receptor Triple Agonists” (Boehringer Ingelheim International GmH, priority 2024, published 2025).
